Target: HLA-DR10 (Homo sapiens, UniProt P01911)
Experiment: Subsequent screenings of ligands for binding to HLA-DR10

Sequence of HLA-DR10 (P01911 30-266 with the stated changes): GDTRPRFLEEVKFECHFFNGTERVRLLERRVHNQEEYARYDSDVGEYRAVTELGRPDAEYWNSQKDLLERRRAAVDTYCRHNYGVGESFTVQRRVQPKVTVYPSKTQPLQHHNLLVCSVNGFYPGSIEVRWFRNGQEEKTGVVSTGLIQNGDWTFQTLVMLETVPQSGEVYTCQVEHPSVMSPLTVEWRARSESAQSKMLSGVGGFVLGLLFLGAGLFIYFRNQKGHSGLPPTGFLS
Sequence of HLA-DR10 (P01903 26-254 partner): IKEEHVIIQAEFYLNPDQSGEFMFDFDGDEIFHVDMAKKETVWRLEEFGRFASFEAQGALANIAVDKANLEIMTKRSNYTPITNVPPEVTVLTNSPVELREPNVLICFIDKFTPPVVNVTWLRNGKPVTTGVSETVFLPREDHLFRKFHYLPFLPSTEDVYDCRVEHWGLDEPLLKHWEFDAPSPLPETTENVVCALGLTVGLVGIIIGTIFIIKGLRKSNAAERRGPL

Nc1ccc(Oc2ccc(C(=O)c3ccc(C(=O)c4ccc(Oc5ccc(N)cc5)cc4)cc3)cc2)cc1 [1,4-Phenylenebis[[4-(4-aminophenoxy)phenyl]methanone]]
observation with the target protein in screening: precipitated onto the target protein
